The record followed here is patent publication US20090232735A1, “USE OF FRUCTOSE-BASED THERAPIES FOR THE TREATMENT OF CANCER” (CEDARS-SINAI MEDICAL CENTER, priority 2005, published 2009).

This experiment concerns PANC-1 pancreatic cancer cells. Description: PANC-1 pancreatic cancer cell proliferation (MTS assay). It counts as cell-based, human. The conditions noted are these: oxythiamine 0.5 mM, 72 h, MTS. As for the experimental part:
FIG. 13 depicts higher proliferation rates in pancreatic cancer cells in fructose (5.5 mM) than glucose (5.5 mM) containing medium in accordance with an embodiment of the present invention. PANC-1 cells were pre-incubated in 2 mM glucose, after which they were plated in 5.5 mM fructose or glucose for times between 12-72 h, after which proliferative rates were measured using an MTS assay. Proliferative rates are expressed as the percentage difference between cells grown in 5.5 mM fructose versus 5.5 mM glucose. p<0.01 for times>48 h.
FIG. 14 depicts proliferation rates of pancreatic cells in different fructose or glucose concentrations in accordance with an embodiment of the present invention. PANC-1 cells were plated in a range of fructose or glucose concentrations (5-25 mM) for 72 h, after which proliferative rates were measured using an MTS assay. *, p<0.05 for concentrations between 5-25 mM fructose versus glucose.
FIG. 17 depicts cell proliferation regardless of co-existent glucose concentration in accordance with an embodiment of the present invention. PANC-1 cells were pre-incubated in 2 mM glucose prior to treatment with a range of concentrations (0-15 mM) mixed with a range of fructose concentrations (0-15 mM) for 72 h. PANC-1 cell proliferative rates were then measured using the MTS assay (absorbance in arbitrary units).
FIG. 35 depicts inhibition of pancreatic cancer PANC-1 cell proliferation by incubation with the transketolase inhibitor, oxythiamine (0.5-2 mM) for 72 h in accordance with an embodiment of the present invention. Proliferative rates were measured using the MTS proliferation assay.
Standard media for maintenance cancer cell line culture, including pancreatic cancer cells such as PANC-1 cells contain either low—(5-7 mM), or high—(12-25 mM) glucose concentrations. Clearly, apart from the setting of hyperglycemia, as in patients with diabetes, the glucose concentrations in which pancreatic cancer cells are maintained in vitro are much higher than normal physiological conditions, which range between 2-5 mM glucose. […] Therefore, the inventors first pre-treated the pancreatic cancer cells overnight in standard DMEM medium containing low physiological glucose concentrations (2 mM glucose), and standard 10% fetal bovine serum. The pancreatic cancer cells were then incubated for times between 12, and 96 hours in standard DMEM medium containing 10% fetal bovine serum, and 5.5 mM glucose or 5.5 mM fructose. Proliferative rates were then measured in replicate (minimum of 6) aliquot wells of the pancreatic cancer cells, and the change (expressed as percent increase) in proliferative rates compared between cells grown in glucose, or fructose containing medium.
This first result intrigued the inventors, but given there is little documentation regarding physiological fructose concentrations, the inventors first considered that the “apparent” pro-proliferative effects of fructose were simply a consequence of the highly stylized in vitro experimental conditions, and that if the pancreatic cancer cells were cultured in higher glucose concentrations, this would result in similar proliferative rates to those the inventors observed following culture in 5.5 mM fructose. Therefore, in the next experiments, the inventors compared proliferative rates of the PANC-1 pancreatic cancer cells following culture for 72 h in a range of fructose, and glucose concentrations (2-25 mM). This timepoint was chosen as the inventors had seen maximal pancreatic cancer cell proliferation in 5.5 mM fructose at 72 h. […] While not wishing to be bound by any particular theory, the inventors believe that this latter finding may be because the PANC-1 cells are proliferating at close to maximal capacity by 72 h, once they are exposed to comparatively low fructose concentrations (5 mM). MTS assay was employed to measure pancreatic cancer cell proliferative rates, which utilizes mitochondrial oxidation to quantify cell proliferation. […]

Entries after “also recorded” stand apart in the source; their conditions may differ.

Take `Cc1ncc(C[n+]2csc(CCO)c2C)c(=O)[nH]1` [oxythiamine, reference compound]: the “glucose-induced and fructose-induced PANC-1 proliferation” value is “inhibited”. Further, the “fructose-mediated increase in pancreatic cancer cell proliferation” value (5.5 mM fructose) is “virtually abolished; also recorded: almost completely abrogate”.
